# Source: patent US7666864B2, “Bicyclic nitroimidazole-substituted phenyl oxazolidinones” (priority 2008, dated 2010)
# Read-outs that look alike come from different tables or passages of the source.
# Experiments:
# [1] = system: S. aureus ATCC# 29213 (Lzd-resistant); test: microbe, parasite or virus in culture; assay type: cell-based, Staphylococcus aureus; conditions: for MIC: Staphylococcus aureus, ATCC29213, linezolid-resistant isogenic strain; for MIC against strain resistant to linezolid: linezolid-resistant S. aureus
# [2] = system: Mycobacterium tuberculosis H37Rv; test: MIC against Mycobacterium tuberculosis H37Rv (method of Gruppo); assay type: cell-based; conditions: for MIC: Mycobacterium tuberculosis, H37RV
# [3] = system: Staphylococcus aureus ATCC 29213; test: MIC against Staphylococcus aureus ATCC 29213, microbroth dilution (NCCLS); assay type: cell-based; conditions: for activity against Staphylococcus aureus ATCC 29213 (in words): Gram-positive species; for MIC: Staphylococcus aureus, ATCC29213, microbroth dilution, read-out: MIC S. aureus ATCC# 29213
# [4] = system: Mycobacterium tuberculosis H37Rv; test: Anaerobic activity against Mycobacterium tuberculosis H37Rv under Wayne conditions (method of Lenaerts); assay type: cell-based
smiles,measurement,setting,value
"CC(=O)NC[C@H]1CN(c2ccc(-c3cnc(O[C@@H]4COc5nc([N+](=O)[O-])cn5C4)nc3)c(F)c2)C(=O)O1 [Example 8, (S,S)—N-(3-{3-Fluoro-4-[2-(2-nitro-6,7-dihydro-5H-imidazo[2,1-b][1,3]oxazin-6-yloxy)-pyrimidin-5-yl]-phenyl}-2-oxo-oxazolidin-5-ylmethyl)-acetamide]",MIC,[1],8 µg/mL
same,MIC against strain resistant to linezolid,[1],8 micg/mL
same,MIC,[2],1 µg/mL
same,activity against Staphylococcus aureus ATCC 29213 (in words),[3],more potent than linezolid
same,MIC,[3],1 µg/mL
"CC(=O)NC[C@H]1CN(c2ccc(-c3ccc(CO[C@@H]4COc5nc([N+](=O)[O-])cn5C4)cc3)c(F)c2)C(=O)O1 [Example 31, (S,S)—N-{3-[2-Fluoro-4′-(2-nitro-6,7-dihydro-5H-imidazo[2,1-b][1,3]oxazin-6-yloxymethyl)-biphenyl-4-yl]-2-oxo-oxazolidin-5-ylmethyl}-acetamide]",MIC,[1],4 µg/mL
same,MIC against strain resistant to linezolid,[1],4 micg/mL
same,MIC,[2],0.5 µg/mL
same,activity against Staphylococcus aureus ATCC 29213 (in words),[3],more potent than linezolid
same,MIC,[3],1 µg/mL
"CC(=O)NC[C@H]1CN(c2ccc(OCC3(C)Cn4cc([N+](=O)[O-])nc4O3)c(F)c2)C(=O)O1 (stereo partly shown) [Example 50, N-{3-[3-Fluoro-4-(2-methyl-6-nitro-2,3-dihydro-imidazo[2,1-b]oxazol-2-ylmethoxy)-phenyl]-2-oxo-oxazolidin-5-ylmethyl}-acetamide]",M. tuberculosis H37Rv % survival at 10 ug/mL (Low O2),[4],1.8%
same,"fold less potent than PA-824, in vitro MIC",[2],8 fold
same,"fold less potent than linezolid, in vitro MIC",[2],2 fold
same,MIC,[2],4 µg/mL
same,MIC,[3],64 µg/mL
"CC(=O)NC[C@H]1CN(c2ccc(N3CCOCC3)c(F)c2)C(=O)O1 [Linezolid, linezolid, reference compound]",MIC,[1],64 µg/mL
same,MIC against strain resistant to linezolid,[1],64 micg/mL
same,M. tuberculosis H37Rv % survival at 10 ug/mL (Low O2),[4],28.2%
same,M. tuberculosis H37Rv % survival at 10 ug/mL (Low O2),[4]; listed as linezolid,28.2%
same,MIC,[2],2 µg/mL
same,MIC,[3],2 µg/mL
"O=[N+]([O-])c1cn2c(n1)OC[C@@H](OCc1ccc(OC(F)(F)F)cc1)C2 [PA-824, reference compound]",MIC,[1],> 64 µg/mL
same,M. tuberculosis H37Rv % survival at 10 ug/mL (Low O2),[4],3.6%
same,MIC,[2],0.5 µg/mL
same,MIC,[3],> 64 µg/mL
